{"source": "patent US20050120392A1", "about": "“Transgenic zebrafish models for thrombosis” (priority 2002, published 2005)", "key": {"P2Y12 mRNA": {"system": "P2Y12 mRNA", "test": "P2Y12 morpholino knockdown in ADP thrombosis assay", "format": "in vivo, zebrafish", "settings": "2.4 ng morpholino, 90 pmol ADP", "text": "(§1) For some experiments (aspirin, Reopro, Integrilin, Ticlopidine and hirudin), larvae were scored according to the number of stationary platelets observed. The counts were done for sections of the larvae (FIG. 2) and later totaled for the larvae. […] In these experiments (morpholino), control larvae (ADP alone) had no moving platelets.\n(§2) P2Y12 (5′-[…]-3′) and GPIIb (5′-[…]-3′) morpholinos were purchased from Gene Tools (Philomath, Oreg.). Both of these morpholinos were designed to recognize the first 25 bases of coding sequence. Morpholino—(0.1 mM stock contained in 0.2% phenol red) or mock—(0.2% phenol red) injections were performed in one to four cell stage of homozygous TG(GPIIb:eGFP) zebrafish. These embryos were checked 2-4 hours after injection to eliminate non-fertilized or poorly developed eggs. The embryos were placed into Holtfretter's solution at 27° C. until used in the thrombosis assay (5-6 dpf). For the thrombosis assay, larvae were injected with 90 pmol of ADP, a concentration that immobilized all platelets in the larvae. A positive or negative effect was designated for each larva when there were moving or no moving platelets, respectively, after ADP challenge."}, "GPIIb mRNA": {"system": "GPIIb mRNA", "test": "GPIIb morpholino knockdown in ADP thrombosis assay", "format": "in vivo, zebrafish", "settings": "2.4 ng morpholino at 1-4 cell stage, 90 pmol ADP at 5-6 dpf, n=34", "text": "as §1, §2"}, "platelets": {"system": "platelets", "test": "In vivo thrombosis assay: thrombotic agent injected into heart cavity of TG(GPIIb:eGFP) larvae", "set-up": "species or system zebrafish", "description": "Only larvae homozygous for the GPIIb-eGFP transgene, were used for the assay. […] Injection of compounds into the heart cavity of larvae was performed using a glass-pulled capillary needle ( 15 μm in diameter at the tip) attached to a microinjector. Phenol red (0.2%) was routinely used for all injections to ensure accurate injection into the heart cavity. All larvae were anaesthetized with tricaine during the injection and returned to fresh fish water before analysis. Fluorescence was observed using a stereomicroscope with a GFP specific filter set. […] The counts were done for sections of the larvae (FIG. 2) and later totaled for the larvae. […] In these experiments (morpholino), control larvae (ADP alone) had no moving platelets. TG(GPIIb:GFP) zebrafish were bred to produce homozygous TG(GPIIb:eGFP) embryos. […] At 6 dpf, the larvae have developed a swim bladder and most (or all) of their yolk sac has disappeared."}, "zebrafish larvae": {"system": "zebrafish larvae", "format": "in vivo", "description": "Only larvae homozygous for the GPIIb-eGFP transgene, were used for the assay. Soaking experiments with anti-thrombotic compounds were initiated when larvae were 5 dpf and injections with thrombotic agents were performed the next day. Injection of compounds into the heart cavity of larvae was performed using a glass-pulled capillary needle (˜15 μm in diameter at the tip) attached to a microinjector. Phenol red (0.2%) was routinely used for all injections to ensure accurate injection into the heart cavity. All larvae were anaesthetized with tricaine during the injection and returned to fresh fish water before analysis. Fluorescence was observed using a stereomicroscope with a GFP specific filter set."}, "[1]": {"system": "ADP-induced platelet aggregation", "test": "In vivo anti-thrombotic assay: ADP-induced aggregate formation in TG(GPIIb:eGFP) larvae", "set-up": "species or system zebrafish", "settings": "for platelet aggregation in zebrafish (summary statement): in vivo", "description": "(§3) Only larvae homozygous for the GPIIb-eGFP transgene, were used for the assay. […] Injection of compounds into the heart cavity of larvae was performed using a glass-pulled capillary needle ( 15 μm in diameter at the tip) attached to a microinjector. Phenol red (0.2%) was routinely used for all injections to ensure accurate injection into the heart cavity. All larvae were anaesthetized with tricaine during the injection and returned to fresh fish water before analysis. Fluorescence was observed using a stereomicroscope with a GFP specific filter set. […] The counts were done for sections of the larvae (FIG. 2) and later totaled for the larvae. […] In these experiments (morpholino), control larvae (ADP alone) had no moving platelets."}, "[2]": {"system": "thrombin-induced platelet aggregation", "test": "In vivo anti-thrombotic assay: thrombin-induced aggregate formation in TG(GPIIb:eGFP) larvae", "set-up": "species or system zebrafish", "description": "as §3"}, "[3]": {"settings": "5 dpf larvae soaked overnight in varying concentrations, 90 pmol ADP next day"}, "[4]": {"settings": "Plavix approximately 0.2-1 μg/ml overnight"}, "[5]": {"settings": "GPIIb-eGFP transgenic (homozygous), zebrafish, in vivo"}, "[6]": {"settings": "thrombin 3.38 ng (0.018 NIH unit)"}}, "note": "Entries after “also recorded” stand apart in the source; their conditions may differ. Like-named read-outs stand apart in the source and are kept apart here. Bridge positions count the residues as written; N and C are the ends. Square brackets hold non-standard residues; d marks the D form. Peptide text beside a SMILES is read from it. hArg = N=C(N)NCCCC[C@H](N)C(=O)O; Mpa = O=C(O)CCS", "data": [{"compound": "5′-AGCTGAGCTGCGTTGTTTGCTCCAT-3′ (morpholino, further chemistry not given here) [P2Y12 morpholino]", "values": [{"measurement": "effectiveness (larvae with moving platelets after ADP)", "setting": "P2Y12 mRNA", "value": 50, "unit": "%"}]}, {"compound": "5′-GACTGAATTCCAGTTTCTTGTCCAT-3′ (morpholino backbone, further chemistry not given here) [GPIIb morpholino]", "values": [{"measurement": "tested larvae with moving platelets after ADP injection", "setting": "GPIIb mRNA", "value": 76.5, "unit": "%"}]}, {"compound": "Nc1ncnc2c1ncn2[C@@H]1O[C@H](COP(=O)(O)OP(=O)(O)O)[C@@H](O)[C@H]1O", "note": "[ADP]", "values": [{"measurement": "number of macroaggregates compared with phenol red-injected group", "setting": "platelets; 90 pmol ADP", "value": "not significant"}, {"measurement": "platelet movement after injection", "setting": "platelets; 90 pmol ADP into heart cavity", "value": "most or all of the platelets within the larvae stopped moving; also recorded: a complete inhibition of platelet movement was observed"}, {"measurement": "time until platelets stopped moving", "setting": "platelets; 90 pmol ADP into heart cavity", "value": "≤ 5", "unit": "min"}, {"measurement": "microaggregates found in each injected larva", "setting": "platelets; 90 pmol ADP into heart cavity, 6-7 dpf larvae, n=16", "value": "about 38±3 microaggregates"}, {"measurement": "duration of the effect", "setting": "platelets; 90 pmol ADP, observed for up to 8 hours", "value": "several hours"}, {"measurement": "platelet movement after injection", "setting": "platelets; ADP, concentrations lower than 90 pmol", "value": "did not induce a complete inhibition of platelet movement"}, {"measurement": "lethality (beating heart)", "setting": "zebrafish larvae; 90 pmol ADP into heart cavity", "value": "not lethal"}, {"measurement": "time within which the larva died", "setting": "zebrafish larvae; 180 pmol ADP into heart cavity, n=8", "value": "5 to 10", "unit": "min"}]}, {"compound": "CCCCS(=O)(=O)N[C@@H](Cc1ccc(OCCCCC2CCNCC2)cc1)C(=O)O", "note": "[Aggrastat, tirofiban]", "values": [{"measurement": "ADP-induced aggregation", "setting": "[1]; Aggrastat 100 μg/ml soak 24 hours plus 240 ng injected 10 min before ADP", "value": "inhibited"}, {"measurement": "ADP-induced aggregation", "setting": "[1]; Aggrastat 10-50 μg/ml overnight", "value": "ineffective"}, {"measurement": "ADP-induced aggregate formation", "setting": "[1]; Aggrastat soaking alone or injection alone", "value": "did not antagonize"}]}, {"compound": "N=C(N)NCCCC[C@@H]1NC(=O)CCSSC[C@@H](C(N)=O)NC(=O)[C@@H]2CCCN2C(=O)[C@H](Cc2c[nH]c3ccccc23)NC(=O)[C@H](CC(=O)O)NC(=O)CNC1=O", "note": "[Integrilin, eptifibatide] ([Mpa][hArg]GDWPC-NH2; disulfide 1-7)", "values": [{"measurement": "survival after overnight treatment", "setting": "zebrafish larvae; Integrilin 5 mg/ml", "value": "all larvae died"}, {"measurement": "ADP-induced microaggregate formation", "setting": "[1]; [3]", "value": "dose-dependent inhibition; also recorded: dose-dependently prevented"}, {"measurement": "number of platelet aggregates compared to control group", "setting": "[1]; Integrilin 0.25-1.0 mg/ml overnight soak", "value": "no change"}]}, {"compound": "COC(=O)[C@H](c1ccccc1Cl)N1CCc2sccc2C1", "note": "[Plavix, Clopidogrel]", "values": [{"measurement": "aggregation induced by a high concentration of thrombin", "setting": "[2]; [4]", "value": "not effective"}, {"measurement": "lethal dose", "setting": "zebrafish larvae; [5]", "value": "≥ 5", "unit": "µg/mL"}, {"measurement": "ADP-induced aggregate formation", "setting": "[1]; [4]", "value": "partial inhibition"}, {"measurement": "platelet aggregation in zebrafish (summary statement)", "setting": "[1]", "value": "effective at inhibiting"}]}, {"compound": "Clc1ccccc1CN1CCc2sccc2C1", "note": "[Ticlopidine]", "values": [{"measurement": "concentration at which larvae did not survive the overnight treatment", "setting": "zebrafish larvae; [5]", "value": "≥ 10", "unit": "µM"}]}, {"compound": "CC(=O)Oc1ccccc1C(=O)O", "note": "[aspirin, acetylsalicylic acid]", "values": [{"measurement": "survival after overnight treatment", "setting": "zebrafish larvae; aspirin 125 μg/ml", "value": "the larvae died"}, {"measurement": "effect on platelet movement or development of the larvae", "setting": "zebrafish larvae; aspirin alone", "value": "no adverse effect"}, {"measurement": "ADP-induced microaggregate formation", "setting": "[1]; [3]", "value": "prevented"}, {"measurement": "microaggregate count within control phenol red-injected larvae", "setting": "[1]; aspirin 115 μg/ml, no ADP", "value": "trend toward a decrease"}, {"measurement": "ADP-induced microaggregate formation", "setting": "[1]; aspirin 95 and 105 μg/ml, overnight soak before ADP challenge", "value": "partially prevented"}, {"measurement": "platelet aggregation in zebrafish (summary statement)", "setting": "[1]", "value": "effective at inhibiting"}]}, {"compound": "CNC[C@H](O)c1ccc(O)c(O)c1", "note": "[epinephrine]", "values": [{"measurement": "effect of collagen on platelet aggregation", "setting": "platelets; epinephrine 18 pg in conjunction with collagen", "value": "did not enhance"}]}, {"compound": "CC1CC(=O)NN=C1c1cc(-n2ccnc2)cs1", "note": "(centres unmarked) [motapizone]", "values": [{"measurement": "ADP-induced aggregation", "setting": "[1]; motapizone 50 μM overnight soak", "value": "Partial inhibition"}, {"measurement": "ADP-induced microaggregate formation", "setting": "[1]; motapizone 250 and 100 μM, overnight soak of 5 dpf larvae", "value": "effective in blocking"}, {"measurement": "action of ADP on platelet aggregation", "setting": "[1]; motapizone injected 5 min before ADP challenge", "value": "ineffective"}, {"measurement": "ADP-induced aggregation", "setting": "[1]; motapizone, concentrations lower than 50 μM", "value": "ineffective"}, {"measurement": "platelet aggregation in zebrafish (summary statement)", "setting": "[1]", "value": "decreases platelet aggregation"}, {"measurement": "platelet aggregation in zebrafish (summary statement)", "setting": "[1]; listed as Motapizone", "value": "effective in reducing"}]}, {"compound": "Reopro: human/murine chimeric antibody, GPIIb/IIIa antagonist", "values": [{"measurement": "ADP-induced microaggregate formation", "setting": "[1]; Reopro 0.5-5 μg/ml overnight soak plus 120 ng injected 10 min before ADP", "value": "dose-dependently inhibited"}, {"measurement": "ADP-induced aggregation of platelets", "setting": "[1]; Reopro injection alone (120 ng or less), no overnight soak", "value": "did not antagonize"}, {"measurement": "ADP-induced microaggregate formation", "setting": "[1]; Reopro overnight soak plus 60 ng injected", "value": "no effect"}]}, {"compound": "hirudin", "values": [{"measurement": "thrombin-induced aggregate formation", "setting": "[2]; hirudin 0.029 unit given simultaneously with thrombin 0.018 NIH unit", "value": "no aggregation was observed; also recorded: inhibited"}, {"measurement": "ADP-induced aggregation", "setting": "[1]; hirudin 0.029 unit, 90 pmol ADP", "value": "did not have any effect"}]}, {"compound": "thrombin", "values": [{"measurement": "duration of arrested platelet movement", "setting": "platelets; [6]", "value": 30, "unit": "min"}, {"measurement": "time after which platelets began to move more freely", "setting": "platelets; [6]", "value": "≤ 25", "unit": "min"}, {"measurement": "platelet aggregation / arrest after injection", "setting": "platelets; thrombin 3.38 ng (0.018 NIH unit) into heart cavity", "value": "induced platelet aggregation; also recorded: most of the platelets were arrested"}, {"measurement": "platelets arrested", "setting": "platelets; thrombin 3.38 ng (0.018 NIH unit), 5 min after injection, n=15", "value": "85-90%"}, {"measurement": "platelet mobility (recovery)", "setting": "platelets; thrombin 3.38 ng, within an hour after injection", "value": "most platelets were mobile"}]}]}
